According to patent publication US6534519B1, “Phenanthridine-N-oxides with PDE-IV inhibiting activity” (Altana Pharma AG, priority 1999, dated 2003):

Key:
PDE4 = assay: Inhibition of PDE4 activity (method of Bauer and Schwabe, microtiter plates); format: biochemical; conditions: inhibitory concentration as −log IC50 (mol/1)
Excerpt: The activity test can be carried out, for example according to the method of Bauer and Schwabe. For this, the method is adapted to microtiter plates (Naunyn-Schmiedeberg's Arch. Pharmacol. 1980, 311, 193-198). The PDE reaction takes place in the first step here. In a second step, the resulting 5′-nucleotide is cleaved by a 5′-nucloetidase of the snake venom of Crotalus atrox to the uncharged nucleoside. In the third step, the nucleoside is separated from the remaining charged substrate on ion-exchange columns. The columns are eluted directly into minivials, into which 2 ml of scintillator fluid are additionally added for counting, using 2 ml of 30 mM ammonium formate (pH 6.0).
The inhibitory values determined for the compounds according to the invention [inhibitory concentration as −log IC50 (mol/1)] follow from the following Table A, in which the numbers of the compounds correspond to the numbers of the examples.

## CCn1nnc(-c2ccc(C3=[N+]([O-])C4CCCCC4c4cc(OC)c(OC)cc43)cc2)n1 (single isomer, unassigned; (-)) [Compound 1, (−)-cis-6-[4-(2-Ethyl-2H-tetrazol-5-yl)phenyl]-8,9-dimethoxy-1,2,3,4,4a,10b-hexahydrophen-anthridine-N-5-oxide]
PDE4
  −log IC50: 6.29
other
  melting point: 143.5 to 146 °C
